Tests used:
[1] = target: T1, rat FAAH (Rattus norvegicus, UniProt P97612); assay: FAAH assay, rat FAAH enzyme inactivation (kinact/Ki); format: biochemical; details: oleamide 50 μM, 30° C.; for rFAAH kinact/Ki: in vitro, pH 7.4; for kinact/KI: pH 7.4, in vitro, read-out: rFAAH kinact/Ki
T1 construct: made in house; host or cells: E. coli
T1 sequence (P97612 1-579): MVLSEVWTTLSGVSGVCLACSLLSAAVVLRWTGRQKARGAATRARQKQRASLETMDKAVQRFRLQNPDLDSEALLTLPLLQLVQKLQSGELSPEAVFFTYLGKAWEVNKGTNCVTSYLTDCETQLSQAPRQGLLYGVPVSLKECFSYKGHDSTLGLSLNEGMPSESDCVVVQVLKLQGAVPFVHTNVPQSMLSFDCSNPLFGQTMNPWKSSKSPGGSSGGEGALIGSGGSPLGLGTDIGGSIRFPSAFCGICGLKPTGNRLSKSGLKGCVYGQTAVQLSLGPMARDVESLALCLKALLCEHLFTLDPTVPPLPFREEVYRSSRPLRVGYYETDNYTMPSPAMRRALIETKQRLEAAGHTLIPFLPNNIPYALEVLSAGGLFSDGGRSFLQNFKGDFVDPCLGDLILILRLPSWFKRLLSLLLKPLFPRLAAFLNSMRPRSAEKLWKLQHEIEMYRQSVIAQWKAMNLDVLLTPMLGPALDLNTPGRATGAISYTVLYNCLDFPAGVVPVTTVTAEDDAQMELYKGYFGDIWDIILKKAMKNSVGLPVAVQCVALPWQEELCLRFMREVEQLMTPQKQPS
Method: (§1) The FAAH assay was carried out in 384-well clear polystyrene plates (Evergreen Scientific) in a total volume of 50 μl per well in a manner similar to that described by Mileni et al., Proc. Nat. Acad. Sci. 2008, 105, 12820-12824. All percents are by volume. Serial dilutions of compound were initially prepared in 100% DMSO, and then diluted two-fold into HPLC-grade H2O to give 50% DMSO. To each well, was placed the reaction mixture (40 μl) containing 1-4 nM FAAH, 50 mM NaPi, pH 7.4, 3 mM α-ketoglutarate, 0.15 mM NADH, 7.5 U/ml glutamate dehydrogenase, 2 mM ADP, 1 mM EDTA, and 0.1% Triton X-100 (The concentration shown for each component is the final concentration in the assay). To this mixture, was added 5 μl of a compound of Examples 1 to 101 at various concentrations in 50% DMSO (or 5 μl 50% DMSO for controls). This was immediately followed by the addition of 5 μl oleamide (500 μM) dissolved in 75% EtOH/25% DMSO and the reaction mixture was mixed for 1.5 min. The final concentrations of DMSO and EtOH in the assay were each 7.5%. The reactions were incubated at 30° C. and the absorbance at 340 nm was collected over a period of 90 min with readings taken in 30-second intervals using SpectraMax Plus^384 Microplate Spectrophotometer (Molecular Devices, Sunnyvale, Calif.). The human FAAH and rat FAAH used in the assay was prepared as described in the patent application WO 2006/067613 using wild-type E. coli cells transformed in St. Louis, Mo., U.S.A. The purity of the enzyme was greater than 98% based on an analysis by SDS-polyacrylamide gel electrophoresis followed by Coomassie Blue staining.
(§2) Reaction progress curves were corrected for the non-enzymatic oxidation of NADH by subtraction of absorbancies at each time point obtained from control reactions containing no FAAH enzyme. The loss of enzyme activity as a function of time is well-described by the following mathematical equation (1) for a mono-exponential decay: […]
(§3) where At represents the absorbance at time t, A0 represents the absorbance at time zero, and C represents a constant. Observed rates of enzyme inactivation (kobs) were determined from the non-linear reaction progress curves by fitting the corrected absorbancies to an equation for a mono-exponential decay using the third-party Microsoft Excel plug-in, XLfit (IDBS Limited). Secondary plots of kobs vs. inhibitor concentration were prepared from kobs values obtained from progress curves. Second-order rates for enzyme inactivation, expressed as kinact/Ki (M^−1 s^−1), were calculated from the slopes from linear regression analysis of the secondary plot of kobs vs. inhibitor concentration as defined in following equation (2), where [I]<<Ki:
(§4) The concentration of substrate in the assay was equal to the Km for oleamide of 50 μM. Therefore, reported kinact/Ki values are obtained by multiplying resulting slopes by a factor of two (i.e. slope=kinact/(Ki*2)).
(§5) Table 1, below, lists human FAAH (hFAAH) and rat FAAH (rFAAH) enzyme inhibition values for Examples 1-101 as a ratio of kinact/Ki (M^−1 s^−1).

[2] = target: T2, human FAAH (Homo sapiens, UniProt O00519); assay: FAAH assay, human FAAH enzyme inactivation (kinact/Ki); format: biochemical; details: oleamide 50 μM, 30° C.; for hFAAH kinact/Ki: in vitro, pH 7.4; for kinact/KI: pH 7.4, in vitro, read-out: hFAAH kinact/Ki
T2 construct: made in house; host or cells: E. coli
T2 sequence (O00519 1-579): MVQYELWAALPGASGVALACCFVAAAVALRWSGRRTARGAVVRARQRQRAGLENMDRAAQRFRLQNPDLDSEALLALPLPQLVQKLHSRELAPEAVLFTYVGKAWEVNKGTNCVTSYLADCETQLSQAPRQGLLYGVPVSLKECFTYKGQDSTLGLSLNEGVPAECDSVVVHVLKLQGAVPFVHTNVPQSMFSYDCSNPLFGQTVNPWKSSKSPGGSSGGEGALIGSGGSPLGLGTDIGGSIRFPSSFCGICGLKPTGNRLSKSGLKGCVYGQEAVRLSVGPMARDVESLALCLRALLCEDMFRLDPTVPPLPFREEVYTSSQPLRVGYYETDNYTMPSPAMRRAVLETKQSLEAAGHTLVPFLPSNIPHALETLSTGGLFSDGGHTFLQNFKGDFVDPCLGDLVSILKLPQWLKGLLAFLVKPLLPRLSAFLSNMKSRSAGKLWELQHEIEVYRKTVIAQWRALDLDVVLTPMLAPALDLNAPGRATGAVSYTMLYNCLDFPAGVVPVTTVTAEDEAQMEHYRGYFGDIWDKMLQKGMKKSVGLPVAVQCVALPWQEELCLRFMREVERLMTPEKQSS
Method: as §1, §2, §3, §4, §5

| rFAAH kinact/Ki [1] | hFAAH kinact/Ki [2] | kinact/KI [1] | kinact/KI [2] | Structure (SMILES) |
| --- | --- | --- | --- | --- |
| 2680 M⁻¹ s⁻¹ | 1330 M⁻¹ s⁻¹ | – | – | Cc1noc(NC(=O)N2CCC3(CC2)CC(c2cccc(C(F)(F)F)c2)CO3)c1C (single isomer, unassigned) [Example 67, N-(3,4-dimethylisoxazol-5-yl)-3-[3-(trifluoromethyl)phenyl]-1-oxa-8-azaspiro[4.5]decane-8-carboxamide] |
| – | – | 3590 M⁻¹ s⁻¹ | 1990 M⁻¹ s⁻¹ | Cc1noc(NC(=O)N2CCC3(CC2)CC(c2cc(F)cc(Cl)c2)CO3)c1C (racemic) [Example 16, (3RS)-3-(3-chloro-5-fluorophenyl)-N-(3,4-dimethylisoxazol-5-yl)-1-oxa-8-azaspiro[4.5]decane-8-carboxamide] |
| – | – | 4390 M⁻¹ s⁻¹ | 3970 M⁻¹ s⁻¹ | Cc1noc(NC(=O)N2CCC3(CC2)CC(c2ccc(OCc4ccccc4)c(Cl)c2)CO3)c1C (racemic) [Example 20, (3RS)-3-[4-(benzyloxy)-3-chlorophenyl]-N-(3,4-dimethylisoxazol-5-yl)-1-oxa-8-azaspiro[4.5]decane-8-carboxamide] |
| 2380 M⁻¹ s⁻¹ | 2050 M⁻¹ s⁻¹ | – | – | Cc1noc(NC(=O)N2CCC3(CC2)CC(c2ccc(Cl)c(Cl)c2)CO3)c1C (single isomer, unassigned) [Example 38, 3-(3,4-dichlorophenyl)-N-(3,4-dimethylisoxazol-5-yl)-1-oxa-8-azaspiro[4.5]decane-8-carboxamide] |
| – | – | 2390 M⁻¹ s⁻¹ | 2110 M⁻¹ s⁻¹ | Cc1nnc(NC(=O)N2CCC3(CC2)CC(c2cccc(OC(F)(F)F)c2)CO3)o1 (single isomer, unassigned) [Example 70, N-(5-methyl-1,3,4-oxadiazol-2-yl)-3-[3-(trifluoromethoxy)phenyl]-1-oxa-8-azaspiro[4.5]decane-8-carboxamide] |
| – | – | 7120 M⁻¹ s⁻¹ | 6710 M⁻¹ s⁻¹ | Cc1noc(NC(=O)N2CCC3(CC2)CC(c2ccc(OCc4ccc(F)cc4)c(Cl)c2)CO3)c1C (racemic) [Example 19, (3RS)-3-{3-chloro-4-[(4-fluorobenzyl)oxy]phenyl}-N-(3,4-dimethylisoxazol-5-yl)-1-oxa-8-azaspiro[4.5]decane-8-carboxamide] |
| – | – | 3110 M⁻¹ s⁻¹ | 1800 M⁻¹ s⁻¹ | Cc1noc(NC(=O)N2CCC3(CC2)CC(c2cccc(OC(F)(F)F)c2)CO3)c1C (racemic) [Example 13, (3RS)-N-(3,4-dimethylisoxazol-5-yl)-3-[3-(trifluoromethoxy)phenyl]-1-oxa-8-azaspiro[4.5]decane-8-carboxamide] |
| 3740 M⁻¹ s⁻¹ | 2470 M⁻¹ s⁻¹ | – | – | Cc1noc(NC(=O)N2CCC3(CC2)CC(c2cc(F)cc(Cl)c2)CO3)c1C (single isomer, unassigned) [Example 40, 3-(3-chloro-5-fluorophenyl)-N-(3,4-dimethylisoxazol-5-yl)-1-oxa-8-azaspiro[4.5]decane-8-carboxamide] |
| – | – | 7580 M⁻¹ s⁻¹ | 4120 M⁻¹ s⁻¹ | Cc1noc(NC(=O)N2CCC3(CC2)CC(c2ccc(OCc4ccc(C(F)(F)F)cn4)cc2)CO3)c1C (racemic) [Example 32, (3RS)-N-(3,4-dimethylisoxazol-5-yl)-3-(4-{[5-(trifluoromethyl)pyridin-2-yl]methoxy}phenyl)-1-oxa-8-azaspiro[4.5]decane-8-carboxamide] |
| – | – | 2840 M⁻¹ s⁻¹ | 2290 M⁻¹ s⁻¹ | Cc1noc(NC(=O)N2CCC3(CC2)CC(c2ccc(OCc4ccccc4Cl)c(Cl)c2)CO3)c1C (racemic) [Example 18, (3RS)-3-{3-chloro-4-[(2-chlorobenzyl)oxy]phenyl}-N-(3,4-dimethylisoxazol-5-yl)-1-oxa-8-azaspiro[4.5]decane-8-carboxamide] |
| – | – | 3950 M⁻¹ s⁻¹ | 1580 M⁻¹ s⁻¹ | Cc1noc(NC(=O)N2CCC3(CC2)CC(c2ccc(F)c(Cl)c2)CO3)c1C (racemic) [Example 28, (3RS)-3-(3-chloro-4-fluorophenyl)-N-(3,4-dimethylisoxazol-5-yl)-1-oxa-8-azaspiro[4.5]decane-8-carboxamide] |
| – | – | 3620 M⁻¹ s⁻¹ | 2660 M⁻¹ s⁻¹ | O=C(Nc1cccnn1)N1CCC2(CC1)CC(c1cccc(Oc3ccc(Br)cn3)c1)CO2 (racemic) [Example 5, (3RS)-3-{3-[(5-bromopyridin-2-yl)oxy]phenyl}-N-pyridazin-3-yl-1-oxa-8-azaspiro[4.5]decane-8-carboxamide] |
| – | – | 1140 M⁻¹ s⁻¹ | 2380 M⁻¹ s⁻¹ | Cc1noc(NC(=O)N2CCC3(CC2)CC(c2noc(-c4ccc(C(F)(F)F)cc4)n2)CO3)c1C (racemic) [Example 74, (3RS)—N-(3,4-dimethylisoxazol-5-yl)-3-{5-[4-(trifluoromethyl)phenyl]-1,2,4-oxadiazol-3-yl}-1-oxa-8-azaspiro[4.5]decane-8-carboxamide] |
| – | – | 431 M⁻¹ s⁻¹ | 788 M⁻¹ s⁻¹ | Cc1noc(NC(=O)N2CCC3(CC2)CC(c2ccc4c(c2)OCO4)CO3)c1C (racemic) [Example 24, (3RS)-3-(1,3-benzodioxol-5-yl)-N-(3,4-dimethylisoxazol-5-yl)-1-oxa-8-azaspiro[4.5]decane-8-carboxamide] |
| – | – | 2670 M⁻¹ s⁻¹ | 2040 M⁻¹ s⁻¹ | Cc1noc(NC(=O)N2CCC3(CC2)CC(c2cccc(Cl)c2)CO3)c1C (racemic) [Example 14, (3RS)-3-(3-chlorophenyl)-N-(3,4-dimethylisoxazol-5-yl)-1-oxa-8-azaspiro[4.5]decane-8-carboxamide] |
| – | – | 1470 M⁻¹ s⁻¹ | 2020 M⁻¹ s⁻¹ | Cc1noc(NC(=O)N2CCC3(CC2)CC(c2cccc(-c4ccc(F)c(F)c4)c2)CO3)c1C (racemic) [Example 53, (3RS)-3-(3′,4′-difluorobiphenyl-3-yl)-N-(3,4-dimethylisoxazol-5-yl)-1-oxa-8-azaspiro[4.5]decane-8-carboxamide] |
| – | – | 2520 M⁻¹ s⁻¹ | 2140 M⁻¹ s⁻¹ | Cc1noc(NC(=O)N2CCC3(CC2)CC(c2ccc(Cl)c(F)c2)CO3)c1C (racemic) [Example 26, (3RS)-3-(4-chloro-3-fluorophenyl)-N-(3,4-dimethylisoxazol-5-yl)-1-oxa-8-azaspiro[4.5]decane-8-carboxamide] |

Reference: patent US20110230493A1, “1-OXA-8-Azaspiro [4,5] Decabe-8-Carboxamide Compounds as FAAH Inhibitors” (Pfizer Inc., priority 2008, published 2011)
